Test results reported in PubChem BioAssay AID1963979 (Molecular Pharmacology Branch, DTP, NCI, 2024).
pIC50: −log10 of the molar value. Values joined by “and” are separate entries in the source; they are usually repeats but may differ in a detail not shown here. Equal entries are not always repeated.

Test system: 361931-004-R-J1-PDC multicell spheroid viability
Assay: Anticancer human tumor 361931-004-R-J1-PDC patient-derived colon adenocarcinoma cell line growth inhibition [PI3K]
Settings: for viability, T/C: stronger effect = lower value
Text: Combinatorial screen of targeted agents with the PI3K inhibitors inavolisib, alpelisib, duvelisib, and copanlisib in multi-cell type tumor spheroids
A high-throughput screen of multi-cell type tumor spheroids was designed to identify active combinations of targeted small molecules and PI3K pathway inhibitors. Complex spheroids include a stromal component modeled by human endothelial cells (HUVEC) and fibroblasts modeled by human mesenchymal stem cells (MSCs). The concentration ranges selected for each drug and investigational agent were based upon clinically achievable concentrations if the clinical Cmax of the agent was known.
Compounds. The drugs and investigational agents: inavolisib (NSC800729), alpelisib (NSC765974), duvelisib (NSC772469), copanlisib (NSC816437), ipatasertib (NSC767898), afuresertib (NSC778305), talazoparib (NSC767125), sapanisertib (NSC764658), selumetinib (NSC741078), tovorafenib (DAY101, NSC766906), vemurafenib (NSC761431), ravoxertinib (NSC781343), sotorasib (NSC818433), MRTX1133 (NSC 836407), abemaciclib (NSC 768073), palbociclib (NSC758247), venetoclax (NSC 766270), SY5609 (NSC837396), enzalutamide (NSC755605), and darolutamide (NSC825331), were obtained from the National Cancer Institute (NCI) Developmental Therapeutics Program Chemical Repository. The FDA-approved anticancer drug set is available from the NCI Developmental Therapeutics Program. […] The stock solutions were prepared in dimethyl sulfoxide (DMSO, Sigma-Aldrich, St. Louis, MO, cat. D2650) at 800-fold the tested concentration and stored at -70 degrees C prior to their use. All drugs and investigational agents were tested over a range starting from a high concentration at or near the clinical Cmax and decreasing in half-log increments. If the clinical Cmax for an agent had not been determined, the highest concentration tested was 10 microM.
Cell Culture. All cells were maintained in an incubator at 37 degrees C and 5% CO2 with 95% humidity. The PDC lines were cultured according to standard operating procedures established by the NCI PDMR (https://pdmr.cancer.gov/sops/default.htm). All PDCs were thawed and cultured in Matrigel-coated flasks prepared with a working solution of 1X Ham's F-12 nutrient mix, without supplementation (Invitrogen, Waltham, MA, cat. 11765054), 100 U/mL penicillin-streptomycin (Invitrogen, cat. 15140122), and 2.5% Matrigel (Corning Inc., Corning, NY, cat. 354248) for the first three passages. The 354836-022-R-J1-PDC, 475296-252-R-J1-PDC, and 997726-040-R-J2-PDC lines were cultured in 6A media, which includes advanced DMEM/F-12 (Thermo Fisher Scientific, cat. 12634028), 10 mM HEPES (Thermo Fisher Scientific, cat. 15630080), 1X GlutaMAX supplement (Thermo Fisher Scientific, cat. 35050061), 0.1 mg/mL primocin (InvivoGen, San Diego, CA, cat. ant-pm-2), 10% defined fetal bovine serum, heat inactivated (HyClone Laboratories Inc., Logan, UT, cat. SH30070.03HI), 50% L-WRN conditioned media (ATCC, cat. CRL-3276), 1.25 mM N-Acetyl-L-cysteine (Sigma-Aldrich, cat. A9165), 10 mM nicotinamide (Sigma-Aldrich, cat. N0636), 1X B-27 supplement (Thermo Fisher Scientific, cat. 17504044), 1X N-2 supplement (Thermo Fisher Scientific, cat. 17502048), and 10 microM Y-27632 dihydrochloride (Tocris Bioscience, Bristol, United Kingdom, cat. 1254). The 624824-186-R-J2-PDC line was cultured in 6C/Colon 1B media, which includes all 6A media components plus 50 ng/mL human EGF recombinant protein (Thermo Fisher Scientific, cat. PHG0311). […]

[1] = curve of first compound, second compound 0.0316 µM
[2] = curve of first compound, second compound 0.1 µM
[3] = curve of first compound, second compound 0.316 µM
[4] = curve of first compound, second compound 1 µM
[5] = second compound 0.0316 µM, first compound 0.0316 µM
[6] = second compound 0.0316 µM, first compound 0.1 µM
[7] = second compound 0.0316 µM, first compound 0.316 µM
[8] = second compound 0.0316 µM, first compound 1 µM
[9] = second compound 0.1 µM, first compound 0.0316 µM
[10] = second compound 0.1 µM, first compound 0.1 µM
[11] = second compound 0.1 µM, first compound 0.316 µM
[12] = second compound 0.1 µM, first compound 1 µM
[13] = second compound 0.316 µM, first compound 0.0316 µM
[14] = second compound 0.316 µM, first compound 0.1 µM
[15] = second compound 0.316 µM, first compound 0.316 µM
[16] = second compound 0.316 µM, first compound 1 µM
[17] = second compound 1 µM, first compound 0.0316 µM
[18] = second compound 1 µM, first compound 0.1 µM
[19] = second compound 1 µM, first compound 0.316 µM
[20] = second compound 1 µM, first compound 1 µM
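Note: spheroids exposed to agents for seven days before readout.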

## CCN1CCN(Cc2ccc(Nc3ncc(F)c(-c4cc(F)c5nc(C)n(C(C)C)c5c4)n3)nc2)CC1 + COc1c(OCCCN2CCOCC2)ccc2c3n(c(=NC(=O)c4cnc(N)nc4)nc12)CCN3
Curve of first compound, second compound 0.00316 µM
  pIC50: < 6.00
Curve of first compound, second compound 0.01 µM
  pIC50: < 6.00
[1]
  pIC50: 6.06
[2]
  pIC50: 6.65
[3]
  pIC50: > 8.50
[4]
  pIC50: > 8.50
Second compound 0.00316 µM, first compound 0.00316 µM
  viability, T/C: 92.3%
Second compound 0.00316 µM, first compound 0.01 µM
  viability, T/C: 101%
Second compound 0.00316 µM, first compound 0.0316 µM
  viability, T/C: 103%
Second compound 0.00316 µM, first compound 0.1 µM
  viability, T/C: 103%
Second compound 0.00316 µM, first compound 0.316 µM
  viability, T/C: 94.6%
Second compound 0.00316 µM, first compound 1 µM
  viability, T/C: 87.6%
Second compound 0.01 µM, first compound 0.00316 µM
  viability, T/C: 100%
Second compound 0.01 µM, first compound 0.01 µM
  viability, T/C: 95.1%
Second compound 0.01 µM, first compound 0.0316 µM
  viability, T/C: 94.4%
Second compound 0.01 µM, first compound 0.1 µM
  viability, T/C: 85%
Second compound 0.01 µM, first compound 0.316 µM
  viability, T/C: 77.2%
Second compound 0.01 µM, first compound 1 µM
  viability, T/C: 64.5%
Second compound 0.0316 µM, first compound 0.00316 µM
  viability, T/C: 86.7%
Second compound 0.0316 µM, first compound 0.01 µM
  viability, T/C: 91.3%
[5]
  viability, T/C: 80.7%
[6]
  viability, T/C: 73.5%
[7]
  viability, T/C: 62.3%
[8]
  viability, T/C: 48.1%
Second compound 0.1 µM, first compound 0.00316 µM
  viability, T/C: 80.8%
Second compound 0.1 µM, first compound 0.01 µM
  viability, T/C: 74.3%
[9]
  viability, T/C: 60.3%
[10]
  viability, T/C: 54.3%
[11]
  viability, T/C: 51.2%
[12]
  viability, T/C: 39.9%
Second compound 0.316 µM, first compound 0.00316 µM
  viability, T/C: 50%
Second compound 0.316 µM, first compound 0.01 µM
  viability, T/C: 44.7%
[13]
  viability, T/C: 43.2%
[14]
  viability, T/C: 39.7%
[15]
  viability, T/C: 39%
[16]
  viability, T/C: 39.9%
Second compound 1 µM, first compound 0.00316 µM
  viability, T/C: 22.7%
Second compound 1 µM, first compound 0.01 µM
  viability, T/C: 21.8%
[17]
  viability, T/C: 18.7%
[18]
  viability, T/C: 22.2%
[19]
  viability, T/C: 30.3%
[20]
  viability, T/C: 32.1%

## CC(C)n1nc(-c2ccc3oc(N)nc3c2)c2c(N)ncnc21
Compound 0.000316 µM
  viability, T/C: 99.8% [middle of 4 runs]
Compound 0.001 µM
  viability, T/C: 102% [middle of 4 runs]
Compound 0.00316 µM
  viability, T/C: 108% and 100% (2×) and 104%
Compound 0.01 µM
  viability, T/C: 108% and 100% (2×) and 101%
Compound 0.0316 µM
  viability, T/C: 99.3% [middle of 4 runs]
Compound 0.1 µM
  viability, T/C: 76% [middle of 4 runs]
Curve of compound
  pIC50: < 7.00

## C[C@@H](NC(=O)c1ncnc(N)c1Cl)c1ncc(C(=O)Nc2cc(C(F)(F)F)c(Cl)cn2)s1
Compound 0.0316 µM
  viability, T/C: 106% [middle of 4 runs]
Compound 0.1 µM
  viability, T/C: 103% and 104% (2×) and 115%
Compound 0.316 µM
  viability, T/C: 107% [middle of 4 runs]
Compound 1 µM
  viability, T/C: 99.6% [middle of 4 runs]
Compound 3.16 µM
  viability, T/C: 99.3% [middle of 4 runs]
Compound 10 µM
  viability, T/C: 100% [middle of 4 runs]
Curve of compound
  pIC50: < 5.00

## CC(Cn1ccc(-c2ccc(C#N)c(Cl)c2)n1)NC(=O)c1cc(C(C)O)[nH]n1 (stereo not drawn) + Cc1nc(NC(=O)N2CCCC2C(N)=O)sc1-c1ccnc(C(C)(C)C(F)(F)F)c1
[1]
  pIC50: < 5.00
[2]
  pIC50: < 5.00
[3]
  pIC50: < 5.00
[4]
  pIC50: < 5.00
Curve of first compound, second compound 3.16 µM
  pIC50: < 5.00
Curve of first compound, second compound 10 µM
  pIC50: < 5.00
[5]
  viability, T/C: 102%
[6]
  viability, T/C: 102%
[7]
  viability, T/C: 96.3%
[8]
  viability, T/C: 100%
Second compound 0.0316 µM, first compound 3.16 µM
  viability, T/C: 107%
Second compound 0.0316 µM, first compound 10 µM
  viability, T/C: 98.7%
[9]
  viability, T/C: 105%
[10]
  viability, T/C: 105%
[11]
  viability, T/C: 99.1%
[12]
  viability, T/C: 113%
Second compound 0.1 µM, first compound 3.16 µM
  viability, T/C: 109%
Second compound 0.1 µM, first compound 10 µM
  viability, T/C: 101%
[13]
  viability, T/C: 98.5%
[14]
  viability, T/C: 113%
[15]
  viability, T/C: 95.6%
[16]
  viability, T/C: 105%
Second compound 0.316 µM, first compound 3.16 µM
  viability, T/C: 98.9%
Second compound 0.316 µM, first compound 10 µM
  viability, T/C: 91.5%
[17]
  viability, T/C: 95.4%
[18]
  viability, T/C: 102%
[19]
  viability, T/C: 87.4%
[20]
  viability, T/C: 96%
Second compound 1 µM, first compound 3.16 µM
  viability, T/C: 97%
Second compound 1 µM, first compound 10 µM
  viability, T/C: 84.2%
Second compound 3.16 µM, first compound 0.0316 µM
  viability, T/C: 87.4%
Second compound 3.16 µM, first compound 0.1 µM
  viability, T/C: 81.3%
Second compound 3.16 µM, first compound 0.316 µM
  viability, T/C: 90.7%
Second compound 3.16 µM, first compound 1 µM
  viability, T/C: 83.6%
Second compound 3.16 µM, first compound 3.16 µM
  viability, T/C: 94.4%
Second compound 3.16 µM, first compound 10 µM
  viability, T/C: 79.4%
Second compound 10 µM, first compound 0.0316 µM
  viability, T/C: 68%
Second compound 10 µM, first compound 0.1 µM
  viability, T/C: 68%
Second compound 10 µM, first compound 0.316 µM
  viability, T/C: 72.8%
Second compound 10 µM, first compound 1 µM
  viability, T/C: 62.4%
Second compound 10 µM, first compound 3.16 µM
  viability, T/C: 59.8%
Second compound 10 µM, first compound 10 µM
  viability, T/C: 53%
